Experimental data as given in patent US20060257543A1, “Molecules comprising linked organic moieties as flavor modifiers for comestible compositions” (priority 2005, published 2006).

Each compound was assayed against T1, hT1R2/hT1R3 sweet receptor expressed in an HEK293 cell line (Homo sapiens, UniProt Q7RTX0+Q8TE23) (assay: In vitro hT1R2/hT1R3 sweet taste receptor activation assay (FLIPR, dose response)). Settings: read-out: EC50 for activation of a hT1R2/hT1R3 sweet receptor.
T1 construct: expressed in transfected cells; host or cells: HEK293 derivative, clone S-9
T1 sequence (Q8TE23 20-839): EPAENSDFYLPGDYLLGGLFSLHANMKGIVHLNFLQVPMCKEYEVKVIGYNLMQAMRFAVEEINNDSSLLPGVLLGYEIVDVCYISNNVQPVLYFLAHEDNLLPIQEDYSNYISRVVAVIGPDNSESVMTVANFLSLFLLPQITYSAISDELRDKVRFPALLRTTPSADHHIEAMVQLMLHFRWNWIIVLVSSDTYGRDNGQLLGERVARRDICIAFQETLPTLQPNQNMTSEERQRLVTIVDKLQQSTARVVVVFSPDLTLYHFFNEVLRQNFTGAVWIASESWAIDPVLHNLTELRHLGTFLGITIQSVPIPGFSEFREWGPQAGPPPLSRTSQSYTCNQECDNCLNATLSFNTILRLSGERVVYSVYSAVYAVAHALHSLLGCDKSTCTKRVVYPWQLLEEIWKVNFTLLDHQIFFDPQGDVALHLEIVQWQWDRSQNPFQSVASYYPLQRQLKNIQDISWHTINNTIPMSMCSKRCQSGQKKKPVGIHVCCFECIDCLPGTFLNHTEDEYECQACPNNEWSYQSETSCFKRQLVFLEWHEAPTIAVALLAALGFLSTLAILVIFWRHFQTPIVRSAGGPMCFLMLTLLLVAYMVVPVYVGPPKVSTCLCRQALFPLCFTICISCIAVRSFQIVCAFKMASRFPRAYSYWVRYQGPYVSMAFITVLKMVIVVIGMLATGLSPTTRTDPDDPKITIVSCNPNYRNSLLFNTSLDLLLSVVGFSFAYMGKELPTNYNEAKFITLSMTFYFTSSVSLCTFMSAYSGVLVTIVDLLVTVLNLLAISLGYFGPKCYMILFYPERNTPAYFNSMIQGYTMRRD
T1 sequence (Q7RTX0 21-852): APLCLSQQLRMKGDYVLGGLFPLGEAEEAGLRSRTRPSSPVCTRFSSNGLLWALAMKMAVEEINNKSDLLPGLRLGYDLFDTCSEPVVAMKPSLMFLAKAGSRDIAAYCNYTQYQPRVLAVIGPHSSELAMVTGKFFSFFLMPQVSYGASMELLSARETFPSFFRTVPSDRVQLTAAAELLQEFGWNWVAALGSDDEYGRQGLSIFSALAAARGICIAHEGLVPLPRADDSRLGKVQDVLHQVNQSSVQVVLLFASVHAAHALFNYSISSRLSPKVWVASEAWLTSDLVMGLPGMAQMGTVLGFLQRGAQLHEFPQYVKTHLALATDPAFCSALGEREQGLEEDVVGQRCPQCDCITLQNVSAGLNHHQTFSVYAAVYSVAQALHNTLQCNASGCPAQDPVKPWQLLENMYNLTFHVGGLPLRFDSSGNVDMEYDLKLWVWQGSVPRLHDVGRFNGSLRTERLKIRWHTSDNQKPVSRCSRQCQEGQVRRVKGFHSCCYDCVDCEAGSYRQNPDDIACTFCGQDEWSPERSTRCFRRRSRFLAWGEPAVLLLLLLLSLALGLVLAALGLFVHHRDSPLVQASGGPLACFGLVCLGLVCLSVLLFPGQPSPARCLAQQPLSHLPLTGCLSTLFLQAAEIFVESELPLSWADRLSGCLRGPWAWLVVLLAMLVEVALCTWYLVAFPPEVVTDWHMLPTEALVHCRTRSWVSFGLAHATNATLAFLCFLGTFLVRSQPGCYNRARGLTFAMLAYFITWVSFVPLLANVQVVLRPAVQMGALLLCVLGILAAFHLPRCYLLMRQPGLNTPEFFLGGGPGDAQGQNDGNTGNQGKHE
Type: cell-based
Text: An HEK293 cell line derivative (see Chandrashekar, J., Mueller, K. L., Hoon, M. A., Adler, E., Feng, L., Guo, W., Zuker, C. S., Ryba, N. J.,. Cel,l 2000, 100, 703-711.) that stably expresses Gα15 and hT1R2/hT1R3 (see Li, X., Staszewski, L., Xu, H., Durick, K., Zoller, M., Adler, E. Proc Natl Acad Sci USA 2002, 99, 4692-4696, and PCT Publication No. WO 03/001876) was used to identify compounds with sweet taste enhancing properties. These references are hereby incorporated herein by reference for their methods of preparing and maintaing the cell lines discussed below, and for their methods for screeing compounds that inhibit the biological receptors.
Compounds covered in this document were initially selected based on their activity on the hT1R2/hT1R3—HEK293-Gα15 cell line (Li, et al. vide supra). Activity was determined using an automated fluorometric imaging assay on a FLIPR instrument (Fluorometric Intensity Plate Reader, Molecular Devices, Sunnyvale, Calif.) (designated FLIPR assay). Cells from one clone (designated S-9 cells) were seeded into 384-well plates (at approximately 50,000 cells per well) in a medium containing DMEM Low Glucose (Invitrogen, Carlsbad, Calif.), 10% dialyzed fetal bovine serum (Invitrogen, Carlsbad, Calif.), 100 Units/ml Penicillin G, and 100 μg/ml Streptomycin (Invitrogen, Carlsbad, Calif.) (Li, et al. vide supra) see also World Patent No. WO 03/001876 A2). S-9 cells were grown for 24 hours at 37° C. S-9 cells were then loaded with the calcium dye Fluo-3AM (Molecular Probes, Eugene, Oreg.), 4 μM in a phosphate buffered saline (D-PBS) (Invitrogen, Carlsbad, Calif.), for 1 hour at room temperature. After replacement with 25 μl D-PBS, stimulation was performed in the FLIPR instrument and at room temperature by the addition of 25 μl D-PBS supplemented with different stimuli at concentrations corresponding to twice the desired final level. Receptor activity was quantified by determining the maximal fluorescence increases (using a 480 nm excitation and 535 nm emission) after normalization to basal fluorescence intensity measured before stimulation.
For dose-responses analysis, stimuli were presented in duplicates at 10 different concentrations ranging from 60 nM to 30 μM. Activities were normalized to the response obtained with 400 mM D-fructose, a concentration that elicits maximum receptor response. EC50s were determined using a non-linear regression algorithm (using a Senomyx, Inc. software), where the Hill slope, bottom asymptotes and top asymptotes were allow to vary. Identical results were obtained when analyzing the dose-response data using commercially available software for non-linear regression analysis such as GraphPad PRISM (San Diego, Calif.).

Row | SMILES | EC50
1 | CC(C)Oc1ccc(NC(=S)NCc2cccs2)cc1 [Example 5, 1-(4-Isopropoxyphenyl)-3-(thiophen-2-ylmethyl)thiourea] | 0.12 µM
2 | CC(C)Oc1ccc(NC(=S)NCc2ccco2)cc1 [Example 6, 1-(4-Isopropoxyphenyl)-3-(furan-2-ylmethyl)thiourea] | 0.55 µM
3 | CCOc1ccc(NC(=S)NCc2ccco2)cc1 [Example 7, 1-(4-ethoxyphenyl)-3-(furan-2-ylmethyl)thiourea] | 1.7 µM
4 | CCOc1ccc(NC(=S)NCc2ccoc2)cc1 [Example 8, 1-(4-ethoxyphenyl)-3-(furan-3-ylmethyl)thiourea] | 0.23 µM
5 | CCC(C)Oc1ccc(NC(=S)NCc2ccco2)cc1 (stereo not shown) [Example 9, 1-(4-sec-Butoxy-phenyl)-3-furan-2-ylmethyl-thiourea] | 5.3 µM
6 | CC(C)c1ccc(NC(=S)NCc2ccoc2)cc1 [Example 10, 1-(furan-3-ylmethyl)-3-(4-isopropylphenyl)thiourea] | 0.75 µM
7 | CC(C)Oc1ccc(NC(=S)NCc2ccccc2)cc1 [Example 11] | 1 µM
8 | COc1ccc(CNc2ccc(F)cc2C)cc1O [Example 13, 5-((4-fluoro-2-methylphenylamino)methyl)-2-methoxyphenol] | 2.29 µM
9 | COc1ccc(CNc2ccc(F)cc2F)cc1O [Example 14, 5-((2,4-difluorophenylamino)methyl)-2-methoxyphenol] | 2.1 µM
10 | COc1ccc(CNc2c(F)cc(F)cc2F)cc1O [Example 15, 2-methoxy-5-((2,4,6-trifluorophenylamino)methyl)phenol] | 2.32 µM
11 | COc1ccc(CNc2ccccc2F)cc1O [Example 16, 5-((2-fluorophenylamino)methyl)-2-methoxyphenol] | 2.41 µM
12 | COc1ccc(CNc2cc(C)ccc2C)cc1O [Example 17, 5-((2,5-dimethylphenylamino)methyl)-2-methoxyphenol] | 2.58 µM
13 | CC(C)Oc1ccc(NC(=S)NCc2ccc[nH]2)cc1 [Example 19, 1-((1H-pyrrol-2-yl)methyl)-3-(4-isopropoxyphenyl)thiourea] | 0.025 µM

Same assay, conditions: read-out: Sweet EC50

Row | SMILES | EC50
14 | COc1cc(OC)c(CNC(=S)Nc2ccc(OC(C)C)cc2)c(OC)c1 [Example B1] | 0.26 µM
15 | CC(C)Oc1ccc(NC(=S)NCc2cccn2C)cc1 [Example B2] | 2.59 µM
16 | CC(C)Oc1ccc(NC(=S)NCc2nccs2)cc1 [Example B3] | 1.38 µM
17 | CCOc1ccc(NC(=S)NCc2coc(C)c2)cc1 [Example B4] | 1.44 µM
18 | CCCOc1ccc(NC(=S)NCc2ccco2)cc1 [Example B5] | 1.51 µM
19 | CCc1ccc(NC(=S)NCc2ccoc2)cc1 [Example B6] | 1.88 µM
20 | Cc1cc(CNC(=S)Nc2ccc(OC(C)C)cc2)no1 [Example B7] | 1.89 µM
21 | CCN(CC)c1ccc(NC(=S)NCc2ccoc2)cc1 [Example B8] | 4.09 µM
22 | COc1ccc(CNC(=S)NC(=O)c2ccccc2Cl)cc1 [Example B9] | 4.9 µM
23 | CCOc1ccc(NC(=S)NCc2ccc[nH]2)cc1 [Example B10] | 0.16 µM
24 | CC(C)Oc1ccc(NC(=S)NCc2cccs2)cn1 [Example B11] | 0.22 µM
25 | CC(C)Oc1ccc(NC(=S)NCc2ccc[nH]2)cn1 [Example B12] | 0.34 µM
26 | CCn1cccc1CNC(=S)Nc1ccc(OC(C)C)cc1 [Example B13] | 1.29 µM
27 | C=CCOc1ccc(NC(=S)NCc2ccc[nH]2)cc1 [Example B14] | 0.16 µM
28 | C=COc1ccc(NC(=S)NCc2ccc[nH]2)cc1 [Example B15] | 0.18 µM
29 | CCSc1ccc(NC(=S)NCc2ccc[nH]2)cc1 [Example B16] | 0.21 µM
30 | S=C(NCc1ccc[nH]1)Nc1ccc2c(c1)OCCO2 [Example B17] | 0.31 µM
31 | S=C(NCc1ccc[nH]1)Nc1ccc(SC2CC2)cc1 [Example B18] | 0.41 µM
32 | CSc1ccc(NC(=S)NCc2ccc[nH]2)cc1 [Example B19] | 0.43 µM
33 | FC(F)(F)Oc1ccc(NC(=S)NCc2ccc[nH]2)cc1 [Example B20] | 0.59 µM

Row | SMILES | EC50
34 | CC(C)Nc1ccc(NC(=S)NCc2ccc[nH]2)cc1 [Example B21] | 0.63 µM
35 | FC(F)(F)c1ccc(NC(=S)NCc2ccc[nH]2)c(Cl)c1 [Example B22] | 0.67 µM
36 | S=C(NCc1ccc[nH]1)Nc1ccc2c(c1)CCC2 [Example B23] | 0.79 µM
37 | C=Cc1ccc(NC(=S)NCc2ccc[nH]2)cc1 [Example B24] | 0.87 µM
38 | CN(C)c1ccc(NC(=S)NCc2cccs2)cc1 [Example B25] | 1.5 µM
39 | S=C(NCc1cccs1)Nc1ccc(-n2cccn2)cc1 [Example B26] | 1.53 µM
40 | CC(C)(C)c1ccc(NC(=S)NCc2ccc[nH]2)cc1 [Example B27] | 1.71 µM
41 | CCOc1ccc(NC(=S)NCc2ccc(C)o2)cc1 [Example B28] | 1.91 µM
42 | COC(=O)c1ccc(NC(=S)NCc2cccs2)cc1 [Example B29] | 2.94 µM
43 | CC(C)Oc1ccc(NC(=S)NCc2ccno2)cc1 [Example B30] | 3.86 µM
44 | CCOc1ccc(NC(=S)NCc2sccc2C)cc1 [Example B31] | 4.16 µM
45 | COc1ccc(NC(=S)NCc2ccc[nH]2)c(C)c1 [Example B32] | 5.19 µM
46 | CC(C)COc1ccc(NC(=S)NCc2ccc[nH]2)cc1 [Example B33] | 5.56 µM
47 | CCCCc1ccc(NC(=S)NCc2ccc[nH]2)cc1 [Example B34] | 5.96 µM
48 | CC(C)Oc1ccc(NC(=S)NCc2cccnc2)cc1 [Example B35] | 6.71 µM
49 | C#Cc1ccc(NC(=S)NCc2cccs2)cc1 [Example B36] | 7 µM
50 | CC(=O)c1ccc(NC(=S)NCc2ccoc2)cc1 [Example B37] | 7.45 µM
51 | S=C(NCc1ccc[nH]1)Nc1ccc(N2CCOCC2)cc1 [Example B38] | 8.17 µM
52 | OCCSc1ccc(NC(=S)NCc2ccc[nH]2)cc1 [Example B39] | 8.5 µM
